Drawing on PubChem BioAssay (NCI), this text covers GI50 and TGI for eight compounds.

Several values for one entry are separate records, joined by “and”; a condition that tells them apart may be missing. Equal entries are not always repeated.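 Step 1: Grow cells in 96-well plates. Step 2: Expose to compound for 48 hours at 5 concentrations. Step 3: Interpolate endpoints linearly; if unreached, use highest concentration. GI50 marks 50% less growth. TGI is the concentration that stops growth completely.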 Where only a bound is given, the exact number is not on record here.

Among the test systems are SK-MEL-28 melanoma; A498 renal; HCT-15 colon; SK-OV-3 ovarian; HCT-116 colon; M14 melanoma; HL-60(TB) leukemia; UACC-257 melanoma; SF-295 CNS; BT-549 breast.
What all share (assay): NCI-60 cell line screen, 48 h

Take `CC1=C(C(=O)OCc2ccccc2)C(c2ccc3c(c2)OCO3)n2c(nc3ccccc32)N1` (stereo not drawn): the GI50 in the experiment on SK-MEL-28 melanoma is above 100 µM; with A498 renal it was 0.362 µM; in the experiment on HCT-15 colon it was 0.36 µM; with SK-OV-3 ovarian it was 0.467 µM; in the experiment with HCT-116 colon it was 0.42 µM; in the experiment with M14 melanoma, 0.418 µM. In addition, the GI50 is 0.341 µM with HL-60(TB) leukemia and 0.321 µM in the experiment with SF-295 CNS. The TGI in the experiment on SK-MEL-28 melanoma, in the experiment with A498 renal, with HCT-15 colon, in the experiment on SK-OV-3 ovarian, in the experiment on HCT-116 colon and in the experiment with M14 melanoma was above 100 µM each time. The TGI in the experiment with HL-60(TB) leukemia, with UACC-257 melanoma, in the experiment with SF-295 CNS and with BT-549 breast was above 100 µM in each case.

`N=C(N)c1nn(C2OC(CO)C(O)C2O)c2nc[nH]c(=O)c12` (stereo not drawn): the GI50 in the experiment with SK-MEL-28 melanoma is 0.336 µM; in the experiment with A498 renal, 1.46 µM; in the experiment with HCT-15 colon, 0.587 µM; with SK-OV-3 ovarian it was 0.409 µM; with HCT-116 colon it was 0.347 µM; in the experiment with M14 melanoma it was 0.454 µM. In addition, the GI50 in the experiment on HL-60(TB) leukemia is 0.207 µM; with UACC-257 melanoma it was 0.292 µM; in the experiment on SF-295 CNS, 0.643 µM; in the experiment with BT-549 breast, 0.33 µM. Further, the TGI was 1.55 µM with SK-MEL-28 melanoma; 4.74 µM in the experiment with A498 renal; 5.71 µM in the experiment with HCT-15 colon; 2.97 µM with SK-OV-3 ovarian; 1.29 µM with HCT-116 colon; 1.75 µM in the experiment with M14 melanoma. Also, the TGI in the experiment with HL-60(TB) leukemia was found to be 0.538 µM; in the experiment with UACC-257 melanoma it was 1.29 µM; with SF-295 CNS, 3.26 µM; with BT-549 breast, 2.67 µM.

`CC12CCC(=O)C=C1CCC1C2CCC2(C)C(C(=O)Cn3cnc4c(=S)nc[nH]c43)CCC12` (stereo not drawn): the TGI was above 100 µM with SK-MEL-28 melanoma; 79 µM in the experiment on A498 renal; above 100 µM with HCT-15 colon; above 100 µM in the experiment on SK-OV-3 ovarian; above 100 µM in the experiment on HCT-116 colon; above 100 µM with M14 melanoma. Also, the TGI with HL-60(TB) leukemia is above 100 µM; with UACC-257 melanoma, above 100 µM; in the experiment on SF-295 CNS, 86.7 µM; with BT-549 breast it was above 100 µM.

On to `CC(C)(C(=O)NN)c1ccccc1`, for which the TGI with SK-MEL-28 melanoma, with A498 renal, in the experiment on HCT-15 colon, in the experiment with SK-OV-3 ovarian, in the experiment on HCT-116 colon and in the experiment with M14 melanoma was above 100 µM throughout. Further, the TGI in the experiment with HL-60(TB) leukemia, in the experiment on UACC-257 melanoma, in the experiment on SF-295 CNS and in the experiment with BT-549 breast was above 100 µM in each case.

Take `COc1cc2c(cc1OC)-c1ccc3cc4c(cc3c1N(CCN1CCCC1)C2)OCO4`: the GI50 with SK-MEL-28 melanoma was 7.09 µM; with A498 renal it was 1.57 µM; in the experiment with HCT-15 colon, 1.5 µM; in the experiment with SK-OV-3 ovarian, 0.526 µM; with HCT-116 colon, 0.477 µM; in the experiment with M14 melanoma, 0.574 µM. The GI50 is 0.882 µM in the experiment with HL-60(TB) leukemia, 9.81 µM with UACC-257 melanoma, 0.441 µM with SF-295 CNS and 1.6 µM with BT-549 breast. Besides, the TGI was found to be 20.3 µM with SK-MEL-28 melanoma; 4.63 µM with A498 renal; 3.4 µM in the experiment with HCT-15 colon; 5.51 µM in the experiment with SK-OV-3 ovarian; 1.76 µM with HCT-116 colon; 1.89 µM with M14 melanoma. In addition, the TGI came out at 2.7 µM in the experiment on HL-60(TB) leukemia, 22.2 µM in the experiment with UACC-257 melanoma, 3.1 µM in the experiment on SF-295 CNS and 9.01 µM with BT-549 breast.

For the compound `CCN1C(=O)N(CC)C2C1NN=c1s/c(=C3\C(=O)N(C(C)C)c4ccccc43)c(=O)n12` (stereo not drawn), the GI50 was 1.07 µM in the experiment with SK-MEL-28 melanoma; 0.239 µM in the experiment on A498 renal; 0.322 µM with HCT-15 colon; 0.403 µM in the experiment on SK-OV-3 ovarian; 0.377 µM in the experiment on HCT-116 colon; 0.376 µM in the experiment on M14 melanoma. In addition, the GI50 is 0.24 µM in the experiment on HL-60(TB) leukemia, above 37.7 µM in the experiment with UACC-257 melanoma, 0.246 µM with SF-295 CNS and 1.38 µM in the experiment on BT-549 breast. The TGI in the experiment on SK-MEL-28 melanoma was above 100 µM; in the experiment on A498 renal, 0.91 µM; with HCT-15 colon it was above 100 µM; with SK-OV-3 ovarian, 12.1 µM; in the experiment on HCT-116 colon, above 100 µM; in the experiment with M14 melanoma it was above 100 µM. Further, the TGI with HL-60(TB) leukemia is 0.63 µM; with UACC-257 melanoma, above 100 µM; in the experiment on SF-295 CNS it was 0.83 µM; in the experiment with BT-549 breast, 66.4 µM.

Turning to `O=C(Nc1cccc(Cl)c1)Nc1ncc(CCNc2ncnc3ccsc23)s1`, the GI50 in the experiment on SK-MEL-28 melanoma was 3.85 µM and 2.42 µM; in the experiment with A498 renal it was 2.51 µM and 1.17 µM; in the experiment on HCT-15 colon, 2.99 µM and 1.79 µM; in the experiment on SK-OV-3 ovarian it was 9.12 µM and 4.86 µM; in the experiment with HCT-116 colon it was 1.6 µM and 2.35 µM; in the experiment on M14 melanoma it was 2.3 µM and 1.91 µM. For the same compound, the GI50 with HL-60(TB) leukemia is 4.93 µM and 3.37 µM; in the experiment with UACC-257 melanoma it was 2.12 µM and 1.22 µM; in the experiment with SF-295 CNS it was 0.215 µM and 0.593 µM; with BT-549 breast, 2.07 µM and 1.68 µM. Also, the TGI in the experiment with SK-MEL-28 melanoma is 17.4 µM and > 10 µM; in the experiment with A498 renal, 17.9 µM and > 10 µM; with HCT-15 colon it was 20.4 µM and > 10 µM; with SK-OV-3 ovarian, 24.1 µM and > 10 µM; in the experiment with HCT-116 colon it was 16.1 µM and > 10 µM; in the experiment on M14 melanoma it was 11.6 µM and > 10 µM. In addition, the TGI with HL-60(TB) leukemia was 28.9 µM and > 10 µM; with UACC-257 melanoma it was 11.4 µM and 9.27 µM; with SF-295 CNS, 16.9 µM and > 10 µM; in the experiment on BT-549 breast, 11.8 µM and 7.75 µM.

On to `CCc1ccc(NC(=O)Nc2c[nH]c3ccccc23)cc1`, for which the GI50 in the experiment with SK-MEL-28 melanoma is above 39 µM; in the experiment with A498 renal it was above 46 µM; with HCT-15 colon, 17.8 µM; with SK-OV-3 ovarian, 19.7 µM; in the experiment on HCT-116 colon, 32.9 µM; with M14 melanoma, above 39.8 µM. The GI50 in the experiment with HL-60(TB) leukemia was 0.811 µM; in the experiment on UACC-257 melanoma, above 38.6 µM; in the experiment with SF-295 CNS, 23.8 µM; in the experiment with BT-549 breast it was 1.68 µM. Moreover, the TGI was above 56.6 µM in the experiment on SK-MEL-28 melanoma; above 72.8 µM with A498 renal; above 55.2 µM in the experiment on HCT-15 colon; above 73.2 µM in the experiment on SK-OV-3 ovarian; above 56 µM with HCT-116 colon; above 57 µM in the experiment on M14 melanoma. Besides, the TGI in the experiment with HL-60(TB) leukemia is 5.48 µM; in the experiment with UACC-257 melanoma, above 59.9 µM; with SF-295 CNS, above 56 µM; in the experiment with BT-549 breast, above 23.8 µM.
